≈ marks a conversion by molar mass, not a printed value.
Key:
Format in all cases: functional
Enterococcus faecium [1] = assay: Antibacterial activity against vancomycin-resistant Enterococcus faecium 2 after 18 to 20 hrs by agar dilution method
Enterococcus faecium [2] = assay: Antibacterial activity against Enterococcus faecium C803 after 18 to 20 hrs by agar dilution method
Enterococcus [3] = assay: Antibacterial activity against vancomycin-resistant Enterococcus 3 after 18 to 20 hrs by agar dilution method
Enterococcus faecium [4] = assay: Antibacterial activity against vancomycin-resistant Enterococcus faecium 1 after 18 to 20 hrs by agar dilution method
Enterococcus [5] = assay: Antibacterial activity against vancomycin-resistant Enterococcus 2 after 18 to 20 hrs by agar dilution method
Staphylococcus aureus [6] = assay: Antibacterial activity against Staphylococcus aureus C463 after 18 to 20 hrs by agar dilution method
Enterococcus [7] = assay: Antibacterial activity against vancomycin-resistant Enterococcus 6 after 18 to 20 hrs by agar dilution method
Enterococcus [8] = assay: Antibacterial activity against vancomycin-resistant Enterococcus 5 after 18 to 20 hrs by agar dilution method
Enterococcus [9] = assay: Antibacterial activity against vancomycin-resistant Enterococcus 4 after 18 to 20 hrs by agar dilution method
Streptococcus agalactiae = assay: Antibacterial activity against Streptococcus agalactiae ATCC 2901 after 18 to 20 hrs by agar dilution method
Enterococcus faecalis = assay: Antibacterial activity against Enterococcus faecalis C474 after 18 to 20 hrs by agar dilution method
Streptococcus pneumoniae = assay: Antibacterial activity against Streptococcus pneumoniae C402 after 18 to 20 hrs by agar dilution method
Streptococcus pyogenes = assay: Antibacterial activity against Streptococcus pyogenes ATCC 8736 after 18 to 20 hrs by agar dilution method
Enterococcus [10] = assay: Antibacterial activity against vancomycin-resistant Enterococcus 1 after 18 to 20 hrs by agar dilution method
Staphylococcus = assay: Antibacterial activity against coagulase negative Staphylococcus after 18 to 20 hrs by agar dilution method
Haemophilus influenzae = assay: Antibacterial activity against Haemophilus influenzae after 18 to 20 hrs by agar dilution method
Staphylococcus aureus [11] = assay: Antibacterial activity against methicillin-resistant Staphylococcus aureus 1 after 18 to 20 hrs by agar dilution method

| SMILES | MIC (Enterococcus faecium [1]) | MIC (Enterococcus faecium [2]) | MIC (Enterococcus [3]) | MIC (Enterococcus faecium [4]) | MIC (Enterococcus [5]) | MIC (Staphylococcus aureus [6]) | MIC (Enterococcus [7]) | MIC (Enterococcus [8]) | MIC (Enterococcus [9]) | MIC (Streptococcus agalactiae) | MIC (Enterococcus faecalis) | MIC (Streptococcus pneumoniae) | MIC (Streptococcus pyogenes) | MIC (Enterococcus [10]) | MIC (Staphylococcus) | MIC (Haemophilus influenzae) | MIC (Staphylococcus aureus [11]) |
| --- | --- | --- | --- | --- | --- | --- | --- | --- | --- | --- | --- | --- | --- | --- | --- | --- | --- |
| CC(=O)NC[C@H]1CN(c2ccc(N3CCN(Cc4ccccc4)S3(=O)=O)c(F)c2)C(=O)O1 | 1.56 µg/mL (≈ 3.37 µM) | 6.25 µg/mL (≈ 13.5 µM) | 1.56 µg/mL (≈ 3.37 µM) | 6.25 µg/mL (≈ 13.5 µM) | 6.25 µg/mL (≈ 13.5 µM) | 6.25 µg/mL (≈ 13.5 µM) | 6.25 µg/mL (≈ 13.5 µM) | 6.25 µg/mL (≈ 13.5 µM) | 6.25 µg/mL (≈ 13.5 µM) | 6.25 µg/mL (≈ 13.5 µM) | 6.25 µg/mL (≈ 13.5 µM) | 6.25 µg/mL (≈ 13.5 µM) | 6.25 µg/mL (≈ 13.5 µM) | 6.25 µg/mL (≈ 13.5 µM) | 6.25 µg/mL (≈ 13.5 µM) | 3.12 µg/mL (≈ 6.75 µM) | 6.25 µg/mL (≈ 13.5 µM) |
| CC(=O)NC[C@H]1CN(c2ccc(N3CCOS3(=O)=O)c(F)c2)C(=O)O1 | 1.56 µg/mL (≈ 4.18 µM) | 1.56 µg/mL (≈ 4.18 µM) | 3.12 µg/mL (≈ 8.36 µM) | 1.56 µg/mL (≈ 4.18 µM) | 1.56 µg/mL (≈ 4.18 µM) | 3.12 µg/mL (≈ 8.36 µM) | 3.12 µg/mL (≈ 8.36 µM) | 1.56 µg/mL (≈ 4.18 µM) | 3.12 µg/mL (≈ 8.36 µM) | 0.39 µg/mL (≈ 1.04 µM) | 1.56 µg/mL (≈ 4.18 µM) | 1.56 µg/mL (≈ 4.18 µM) | 0.78 µg/mL (≈ 2.09 µM) | 1.56 µg/mL (≈ 4.18 µM) | 3.12 µg/mL (≈ 8.36 µM) | 3.12 µg/mL (≈ 8.36 µM) | 3.12 µg/mL (≈ 8.36 µM) |
| CC(=O)NC[C@H]1CN(c2ccc(N3CCN(C(=O)OC(C)(C)C)S3(=O)=O)c(F)c2)C(=O)O1 | 12.5 µg/mL (≈ 26.5 µM) | 25 µg/mL (≈ 52.9 µM) | 6.25 µg/mL (≈ 13.2 µM) | 12.5 µg/mL (≈ 26.5 µM) | 25 µg/mL (≈ 52.9 µM) | 12.5 µg/mL (≈ 26.5 µM) | 12.5 µg/mL (≈ 26.5 µM) | 12.5 µg/mL (≈ 26.5 µM) | 6.25 µg/mL (≈ 13.2 µM) | 6.25 µg/mL (≈ 13.2 µM) | 12.5 µg/mL (≈ 26.5 µM) | 25 µg/mL (≈ 52.9 µM) | 6.25 µg/mL (≈ 13.2 µM) | 25 µg/mL (≈ 52.9 µM) | 12.5 µg/mL (≈ 26.5 µM) | 6.25 µg/mL (≈ 13.2 µM) | 12.5 µg/mL (≈ 26.5 µM) |
| CC(=O)NC[C@H]1CN(c2ccc(N3CCNS3(=O)=O)c(F)c2)C(=O)O1 | 0.2 µg/mL (≈ 0.537 µM) | 0.39 µg/mL (≈ 1.05 µM) | 0.78 µg/mL (≈ 2.09 µM) | 0.2 µg/mL (≈ 0.537 µM) | 0.39 µg/mL (≈ 1.05 µM) | 0.39 µg/mL (≈ 1.05 µM) | 0.78 µg/mL (≈ 2.09 µM) | 0.39 µg/mL (≈ 1.05 µM) | 0.78 µg/mL (≈ 2.09 µM) | 0.2 µg/mL (≈ 0.537 µM) | 0.2 µg/mL (≈ 0.537 µM) | 0.2 µg/mL (≈ 0.537 µM) | 0.2 µg/mL (≈ 0.537 µM) | 0.78 µg/mL (≈ 2.09 µM) | 0.2 µg/mL (≈ 0.537 µM) | 0.2 µg/mL (≈ 0.537 µM) | 0.2 µg/mL (≈ 0.537 µM) |
| CCN1CCN(c2ccc(N3C[C@H](CNC(C)=O)OC3=O)cc2F)S1(=O)=O | 3.12 µg/mL (≈ 7.79 µM) | 1.56 µg/mL (≈ 3.9 µM) | 3.12 µg/mL (≈ 7.79 µM) | 6.25 µg/mL (≈ 15.6 µM) | 6.25 µg/mL (≈ 15.6 µM) | 6.25 µg/mL (≈ 15.6 µM) | 3.12 µg/mL (≈ 7.79 µM) | 6.25 µg/mL (≈ 15.6 µM) | 3.12 µg/mL (≈ 7.79 µM) | 3.12 µg/mL (≈ 7.79 µM) | 3.12 µg/mL (≈ 7.79 µM) | 0.78 µg/mL (≈ 1.95 µM) | 0.78 µg/mL (≈ 1.95 µM) | 3.12 µg/mL (≈ 7.79 µM) | 6.25 µg/mL (≈ 15.6 µM) | 3.12 µg/mL (≈ 7.79 µM) | 6.25 µg/mL (≈ 15.6 µM) |
| CC(=O)NC[C@H]1CN(c2ccc(N3CCOCC3)c(F)c2)C(=O)O1 [LINEZOLID] | 0.78 µg/mL (≈ 2.31 µM) | 1.56 µg/mL (≈ 4.62 µM) | 1.56 µg/mL (≈ 4.62 µM) | 1.56 µg/mL (≈ 4.62 µM) | 1.56 µg/mL (≈ 4.62 µM) | 1.56 µg/mL (≈ 4.62 µM) | 1.56 µg/mL (≈ 4.62 µM) | 1.56 µg/mL (≈ 4.62 µM) | 1.56 µg/mL (≈ 4.62 µM) | 1.56 µg/mL (≈ 4.62 µM) | 1.56 µg/mL (≈ 4.62 µM) | 0.39 µg/mL (≈ 1.16 µM) | 0.39 µg/mL (≈ 1.16 µM) | 0.78 µg/mL (≈ 2.31 µM) | 1.56 µg/mL (≈ 4.62 µM) | 1.56 µg/mL (≈ 4.62 µM) | 3.12 µg/mL (≈ 9.25 µM) |

Source: ChEMBL document CHEMBL1139392, “Synthesis and antibacterial activities of novel oxazolidinones having cyclic sulfonamide moieties” (2008)
